Values of other authors as cited in patent US8509867B2, “Non-invasive measurement of analytes” (Cercacor Laboratories, Inc., priority 2002, dated 2013).

How the values were obtained:
[1] = i.v., rats (Merck)

COC(=O)c1ccccc1-c1c2ccc(=N)cc-2oc2cc(N)ccc12 [Rh123, (2-(6-Amino-3-imino-3H-xanthen-9-yl)benzoic acid methyl ester)]
intravenous lethal dose for animals (LD10): approximately 20 mg/kg of body weight | fifty percent lethality (LD50) [1]: 89.5 mg/kg
